From patent US7235536B2, “Cellulose sulfate and other sulfated polysaccharides to prevent and treat papilloma virus infection and other infections” (Rush Presbyterian-St. Luke's Medical Center, priority 2000, dated 2007)
Like-named read-outs stand apart in the source and are kept apart here.

How the values were obtained:
BPV-1 [1] = experiment: BPV-1 focus-forming assay, virus preincubated with compound (Table C); type: cell-based, bovine papilloma virus; conditions: C127 cell line
Protocol: In a similar study using the BPV-1 focus forming assay, the effect of the cellulose sulfate and dextran sulfate on BPV was tested. In this study, cellulose sulfate tested was as described above. Dextran sulfate used was from Dextran Products Limited (Lot DSM-122) prepared using dextan of average Mr of about 500,000 (based on viscosity) and is estimated to have a final average Mr greater than about 500,000 and may be about 1 to 1.1 million.
Microbicidal activity of the compounds was tested using the well-characterized BPV-1 focus-forming assay (Dvoretzky, I., R. Shober, S. K. Chattopadhyay, and D. R. Lowy. 1980. A quantitative in vitro focus assay for bovine papilloma virus. Virology 103:369-375), with modifications for microbicide testing (Hermonat, P. L., (1992) supra; Howett, M. K., et al. (1999) supra. The terms inhibiting or microbicidal activity when used are intended to refer broadly to microbe infection and/or microbe inactivating effect.
Aliquots of BPV-1 containing approximately 100-200 focus-forming units were preincubated with dilutions of compounds for 10 min at 37° C. prior to addition to cultures of mouse C127 cells. Cultures of C127 cells were set up in T25 tissue culture flasks (Corning, N.Y.), containing 3×10^5 cells per flask. Virus-compound mixtures in a total of 50 μl were then added to flasks in 1 ml of media, and an additional 3 ml of media added after 24 hrs culture. Media was changed every 3-4 days for a period of 2 weeks. Foci were enumerated following staining of the monolayer with crystal violet and counting stained foci microscopically. Each concentration of compound was tested in duplicate, and the mean±SD of foci number for the preincubation virus-drug concentration for each compound is shown below as Table C.
Clones were derived from the parental C127 cell line because of the consistent failure of BPV-1 to induce foci following several cell passages of the uncloned parental cell line. One clone, labeled C127-D10, which produced foci upon BPV-1 infection, was chosen for a repeat testing of the compounds. When this clone was tested for microbicidal activity, less compound was required to achieve high reduction in BPV-1-induced foci when compared to the uncloned parental-C127 cells.

BPV-1 [2] = experiment: BPV-1 focus-forming assay, cells pre-incubated with compound and washed before virus (Table D); type: cell-based, bovine papilloma virus; conditions: for Average ± standard deviation (foci/well): C127-D10 cells, washed before virus
Protocol: Microbicidal activity of compounds was also tested by pre-incubation of cells with compounds followed by addition of virus to compound-coated C127 cells. In these experiments, dilutions of compounds were added to cultures of C127 cells, incubated for 1 hr at 37° C., washed 3 times with media to remove unbound compound, prior to addition of approximately 100 focus-forming units of BPV-1. The cultures were incubated for an additional hour, washed three times to remove unbound virus, then the incubation was continued for two weeks with media changes every 3-4 days and foci counted as described above.
Pre-incubation of C127-D10 cells with compounds prior to addition of BPV-1 was tested to determine whether the microbicidal effects of CS and DS extended to a blockage of virus interaction with cell surfaces. In these experiments, titrations of compounds were added to cell cultures followed by washing away unbound reagent prior to addition of virus. After a one-hour incubation with virus, unbound virus was removed by washing and the cultures monitored for foci after two weeks.

Staphylococcus aureus = experiment: Microbial challenge of CS gel; type: cell-based
Protocol: 6% CS was prepared in water as a translucent gel. Twenty grams of the gel was placed in a plastic screw-cap centrifuge tube. The microbial inoculants were prepared, gently vortexed and 0.1 ml inoculant was aseptically pipetted into the 20.0 gram gel. This procedure was repeated for each microbial organism. The samples were incubated at room temperature (20-25° C.) for 14 days or 28 days. The microbes tested and their theoretical yields can be found in Table F. After 14 or 28 days incubation, dilutions (10^−1, 10^−2, 10^−3) of the gels were made in saline and 1 ml plated onto Sabouraud dextrose (Aspergillus and Candida) or onto tryptic soy (other microbes). The number of organisms that grew after 3-7 days at room temperature were counted.
In another study, CS was dissolved in water at the concentrations indicated below. No other ingredients, including preservatives, were added. The gels were challenged with microbes as described above except that the gels were examined for the presence of microbes after 1, 2, 3, 4 and 7 days. The amount of microbes origially inoculated in the gels is also shown below.

Prevotella bivia = experiment: Broth method MIC; type: cell-based
Prevotella disiens = experiment: Broth method MIC; type: cell-based; conditions: for CS MIC: Broth (study 2)
Porphyromonas levii = experiment: Broth method MIC; type: cell-based
Bacteroides fragilis = conditions: Agar

sodium cellulose sulfate
inhibition of papilloma virus infectivity (BPV-1 [1]; 1 mg/ml): complete inhibition
inhibition of papilloma virus infectivity (BPV-1 [1]; 10 to 100 μg/ml): moderate to high inhibition
Average ± standard deviation (foci/well) (BPV-1 [2]; 10 μg/ml): 103 ± 6.3 foci/well
Average ± standard deviation (foci/well) (BPV-1 [2]; 100 μg/ml): 120 ± 8.4 foci/well
Average ± standard deviation (foci/well) (BPV-1 [2]; 1,000 μg/ml): 87 ± 45.1 foci/well
Average ± standard deviation (foci/well) (BPV-1 [2]; 10,000 μg/ml): 2 ± 1.3 foci/well
microbicidal effects (BPV-1 [2]; C127-D10 cells pre-treated, except at 10 mg/ml): only weak microbicidal effects
inactivation of Staphylococcus (Staphylococcus aureus; 0.06% CS gel, slow growth thereafter): initially inactivated most Staphylococcus
inactivation of Staphyloccus (Staphylococcus aureus; 6% CS gel): completely inactivated
Day 14 CFU/g (Staphylococcus aureus; 6% CS gel, ATCC 6538, room temperature, Day 14): 0 CFU/g
Day 28 CFU/g (Staphylococcus aureus; 6% CS gel, ATCC 6538, room temperature, Day 28): 0 CFU/g
Staphylococcus aureus CFU (Staphylococcus aureus; CS 0.06% in water, 24 hours): 0.625 CFU × 10^5/ml
Staphylococcus aureus CFU (Staphylococcus aureus; CS 0.06% in water, 48 hours): 0.715 CFU × 10^5/ml
Staphylococcus aureus CFU (Staphylococcus aureus; CS 0.06% in water, 72 hours): 1.04 CFU × 10^5/ml
Staphylococcus aureus CFU (Staphylococcus aureus; CS 0.06% in water, 96 hours): 2.06 CFU × 10^5/ml
Staphylococcus aureus CFU (Staphylococcus aureus; CS 0.06% in water, 7 days): 5.815 CFU × 10^5/ml
Staphylococcus aureus CFU (Staphylococcus aureus; CS 0.6% in water, 24 hours): 5.17 CFU × 10^5/ml
Staphylococcus aureus CFU (Staphylococcus aureus; CS 0.6% in water, 48 hours): 5.53 CFU × 10^5/ml
Staphylococcus aureus CFU (Staphylococcus aureus; CS 0.6% in water, 72 hours): 4.82 CFU × 10^5/ml
Staphylococcus aureus CFU (Staphylococcus aureus; CS 0.6% in water, 96 hours): 6.41 CFU × 10^5/ml
Staphylococcus aureus CFU (Staphylococcus aureus; CS 0.6% in water, 7 days): 3.25 CFU × 10^5/ml
Staphylococcus aureus CFU (Staphylococcus aureus; CS 1.2% in water, 24 hours): 2.71 CFU × 10^5/ml
Staphylococcus aureus CFU (Staphylococcus aureus; CS 1.2% in water, 48 hours): 4.725 CFU × 10^5/ml
Staphylococcus aureus CFU (Staphylococcus aureus; CS 1.2% in water, 72 hours): 2.39 CFU × 10^5/ml
Staphylococcus aureus CFU (Staphylococcus aureus; CS 1.2% in water, 96 hours): 3.96 CFU × 10^5/ml
Staphylococcus aureus CFU (Staphylococcus aureus; CS 1.2% in water, 7 days): 3.55 CFU × 10^5/ml
Staphylococcus aureus CFU (Staphylococcus aureus; CS 6% in water, 24 hours): 0 CFU × 10^5/ml
Staphylococcus aureus CFU (Staphylococcus aureus; CS 6% in water, 48 hours): 0.005 CFU × 10^5/ml
Staphylococcus aureus CFU (Staphylococcus aureus; CS 6% in water, 72 hours): 0 CFU × 10^5/ml
Staphylococcus aureus CFU (Staphylococcus aureus; CS 6% in water, 96 hours): 0 CFU × 10^5/ml
Staphylococcus aureus CFU (Staphylococcus aureus; CS 6% in water, 7 days): 0 CFU × 10^5/ml
inactivation of Staphyloccus (Staphylococcus aureus; lower CS concentrations): not inactivated but growth was prevented
growth inhibition (Prevotella bivia; all strains): inhibited
CS MIC (Prevotella bivia; rma# 11683, Broth (study 1)): NI (not inhibited by 10 mg/ml (the highest concentration tested))
CS MIC (Prevotella bivia; rma# 11683, Broth (study 2)): 5000 µg/mL
CS MIC (Prevotella bivia; rma# 11697, Broth (study 1)): 600 µg/mL
CS MIC (Prevotella bivia; rma# 11697, Broth (study 2)): 5000 µg/mL
growth inhibition (Prevotella disiens; all strains): inhibited
CS MIC (Prevotella disiens; rma# 11579): 10000 µg/mL
CS MIC (Prevotella disiens; rma# 11698): 10000 µg/mL
growth inhibition (Porphyromonas levii; both strains): inhibited
CS MIC (Porphyromonas levii; rma# 11425, Broth (study 1)): 600 µg/mL
CS MIC (Porphyromonas levii; rma# 11425, Broth (study 2)): 600 µg/mL
CS MIC (Porphyromonas levii; rma# 11601, Broth (study 1)): 300 µg/mL
CS MIC (Porphyromonas levii; rma# 11601, Broth (study 2)): 300 µg/mL
CS MIC (Bacteroides fragilis; ATCC (first listed)): >625 µg/mL
CS MIC (Bacteroides fragilis; rma# 11647): >625 µg/mL
CS MIC (Bacteroides fragilis; rma# 11652): >625 µg/mL
